US11821905B2, “Biomarkers of vascular disease” (Arterez, Inc., priority 2015, dated 2023)

What was measured:
Assay type in all cases: in vivo, mouse
[1] = system: Hyaluronan Synthase 1 (HAS-1); assay: Hyaluronan Synthase 1 (HAS-1) ELISA on plasma, murine model of atherosclerosis, Example 2; details: FIG. 10; high fat diet, PCB on Day 1 and 3, sacrificed at Day 4
Source text: (§1) A novel model of atherosclerosis in mice was developed, using a high fat diet and administration of a polychlorinated biphenyl (3,3′,4,4′-Tetrachlorobiphenyl; PCB-77) that promotes both obesity and atherosclerosis and the additional oral administration of a bacteria responsible for tooth decay, Porphyromonas gingivalis 381 (ATCC 33277). The objective of this study was to examine the association of biomarkers with the murine model of atherosclerosis in mice treated with a strategy to protect and repair endothelial glycocalyx. Eighty-four (84) ten week old male C57/BI6 mice were obtained from Jackson Laboratories. Thirty-two mice were raised from 6 weeks on a regular diet and served as controls, and the remaining mice were raised on a 60% fat diet (D12451, DIO series diet, Opensource Diets). 3,3′,4,4′-Tetrachlorobiphenyl (PCB-77) was obtained from Neosyn Laboratories. The dry chemical was suspended in 15.22 ml of corn oil to deliver 200 μmol/kg in 0.2 ml by gavage per mouse.
(§2) Four test kits were used to analyze the collected plasma samples: Heparan Sulfate ELISA and Hyaluronan Synthase 1 (HAS-1) ELISA (Antibodies-Online), Total Plasminogen Activation Inhibitor-1 (PAI-1) ELISA (Molecular-Innovive) and Syndecan-1 (SDC1) ELISA (USCN, Houston, Tex.). […]

Syndecan-1 (SDC1) = Syndecan-1 (SDC1) ELISA on plasma, murine model of atherosclerosis, Example 2; details: FIG. 13; mice treated PCB-77 and Porphyromonas gingivalis; high degree of variability
Source text: as §1, §2

Heparan Sulfate (HS) = assay: Heparan Sulfate ELISA on plasma, murine model of atherosclerosis, Example 2; details: FIG. 11; mice treated PCB-77 and Porphyromonas gingivalis
Source text: as §1, §2

C57/BI6 mice [2] = assay: Pathology of arterial wall, murine model of atherosclerosis, Example 2; details: FIGS. 14A, 14B; positive control group (High fat diet, PCB)
Source text: as §1
The mice were sacrificed on days 4, 11, or 18 according to the experimental plan (three each from groups). The animals were anesthetized by intraperitoneal injection of 90 mg/kg Ketamine and 8 mg/kg Xylazine, and Isoflurane gas anesthesia. Blood was collected by retro-orbital bleeding or from the heart and mixed with 50 mg/ml heparin to prevent clotting. […]

C57/BI6 mice [3] = assay: Histology disease score (Oil Red O, plaque, fibrous tissue, inflammation), Example 1; details: FIG. 9, gavage 150 μmol/kg, sacrifice days 10, 15, 20
Experimental: For the pilot study, 48 ten week old male C57/BI6 mice were obtained from Jackson Laboratories. Three mice were raised from 6 weeks on a regular diet and served as controls, and the remaining 45 were raised on a 60% fat diet (D12451, DIO series diet, Opensource Diets). For the bacterial dosage test, 16 ten week old male C57/BI6 mice were divided into 4 treatment groups and maintained on a normal diet.
3,3′,4,4′-Tetrachlorobiphenyl (PCB-77) was obtained from Neosyn Laboratories. 100 mg of the dry chemical was suspended in 15.22 ml of corn oil to deliver 150 μmol/kg in 0.2 ml per mouse. Porphyromonas gingivalis 381 (ATCC 33277) was obtained from ATCC. The bacteria were stored frozen prior to use. […] A microplate reader was used to measure the optical density at 600 nm to determine the concentration of bacteria. […]
The hearts were prepared as frozen sections. […] Multiple 10 μm sections at the level of the aortic sinus were analyzed for the presence of oil Red O lipid staining, plaque size, amount of fibrous tissue, and inflammation. The percentage of the lumen occupied by the first three features was calculated using Image Pro Plus. […] The level of inflammation in each section was scored on the following scale: 0=no inflammatory cells observed, 1=few macrophages with no giant cells, 2=foam cells present, 3=foam cells with cholesterol, 4=foam cells, giant cells, and cholesterol present. […]

## Clc1ccc(-c2ccc(Cl)c(Cl)c2)cc1Cl [PCB-77, 3,3′,4,4′-Tetrachlorobiphenyl]
[1]
  HAS-1 levels: highest HAS-1 levels
Syndecan-1 (SDC1)
  SDC-1 level: elevation in SDC-1
Heparan Sulfate (HS)
  Heparan Sulfate (HS) level: elevation in HS
C57/BI6 mice [2]
  pathology of arterial wall: presence of a pathology consistent with plaque
C57/BI6 mice [3]
  average disease scores for each group and time point (inflammation and plaque): most significant risk factor to producing inflammation and plaque
